≈ marks a conversion by molar mass, not a printed value.
Key:
[1] = in vitro; conditions: mouse, liver microsomes
[2] = Half life in athymic nu/nu mouse at 10 mg/kg, iv; assay type: ADME, organism-based; set-up: dose 10 mg/kg, route intravenous; conditions: in vivo
[3] = in vitro; conditions: human, liver microsomes
[4] = biological target: Heat shock protein HSP 90-alpha (Homo sapiens, UniProt P07900)
Description: Binding affinity to N-terminus biotinylated human Hsp90 alpha by surface plasmon resonance assay

[5] = Tmax in athymic nu/nu mouse at 200 mg/kg, po; assay type: ADME, organism-based; set-up: dose 200 mg/kg, route oral; conditions: in vivo
[6] = physchem; conditions: fasted state simulated intestinal fluid

| SMILES | microsomal CLint at 1 h, 5 µM [1] | half-life [2] | microsomal CLint at 1 h, 5 µM [3] | Kd [4] | Tmax [5] | solubility [6] |
| --- | --- | --- | --- | --- | --- | --- |
| CSc1nc(N)nc(-c2ccc3c4c(cc(Cl)cc24)COC3)n1 | 60 µL/min/mg | 15 min | 43 µL/min/mg | 3.4 nM | 30 min | 29 µM (≈ 10 µg/mL) |
| Nc1nc2cc(n1)-c1cc(c(Cl)cc1Cl)OCCCCOc1cccc(c1)S2 |  |  |  | 11 nM |  | < 7 µM |
| Cc1cc(C)c2cc1C(=O)NCCCCNC(=O)CCSc1cc-2nc(N)n1 | 3.5 µL/min/mg |  | 5.1 µL/min/mg |  |  | 553 µM (≈ 221 µg/mL) |
| Cc1cc(C)c2cc1C(=O)NCCCCCNC(=O)CCSc1cc-2nc(N)n1 | 1.8 µL/min/mg |  | 1.7 µL/min/mg |  |  | 169 µM (≈ 69.9 µg/mL) |
| Cc1cc(C)c2cc1C(=O)NCCNC(=O)CCCSc1cc-2nc(N)n1 | 3.6 µL/min/mg |  | 5.4 µL/min/mg | 0.61 nM |  | 106 µM (≈ 40.9 µg/mL) |
| Cc1cc(C)c2cc1C(=O)NCCCC(=O)NCCSc1cc-2nc(N)n1 | 15 µL/min/mg |  | 1 µL/min/mg | 0.65 nM |  | 117 µM (≈ 45.1 µg/mL) |
| Cc1cc(C)c2cc1C(=O)NCCOC(=O)NCCSc1cc-2nc(N)n1 | 7.3 µL/min/mg |  | 3.5 µL/min/mg | 0.7 nM |  | 911 µM (≈ 353 µg/mL) |
| Cc1cc(C)c2cc1C(=O)NCCNC(=O)OCCSc1cc-2nc(N)n1 | 21 µL/min/mg |  | 9.3 µL/min/mg | 0.8 nM |  | 111 µM (≈ 43 µg/mL) |

Next, values leading:

| microsomal CLint at 1 h, 5 µM [1] | half-life [2] | microsomal CLint at 1 h, 5 µM [3] | Kd [4] | Tmax [5] | solubility [6] | SMILES |
| --- | --- | --- | --- | --- | --- | --- |
|  |  |  | 120 nM |  |  | Cc1ccc2cc1-c1cc(nc(N)n1)Sc1cccc(c1)OCCCO2 |
|  |  |  |  |  | 69 µM (≈ 29 µg/mL) | Cc1cc(C)c2cc1C(=O)NCCCCOc1cccc(c1)Sc1cc-2nc(N)n1 |
|  |  |  |  |  | 39 µM (≈ 16.9 µg/mL) | Cc1cc(C)c2cc1C(=O)NCCCCCOc1cccc(c1)Sc1cc-2nc(N)n1 |
|  |  |  | 5.8 nM |  | 260 µM (≈ 110 µg/mL) | COc1cc(C)c2cc1C(=O)NCCCOc1cccc(c1)Sc1cc-2nc(N)n1 |
|  |  |  | 10 nM |  | 186 µM (≈ 81.2 µg/mL) | CCOc1cc(C)c2cc1C(=O)NCCCOc1cccc(c1)Sc1cc-2nc(N)n1 |
